{"source": "patent EP0925782A2", "about": "“Cosmetics” (SOGO PHARMACEUTICAL COMPANY LIMITED, priority 1997, dated 1999)", "key": {"[1]": {"assay": "Test for a moisturizability (weight change after standing at constant temperature and humidity)", "format": "physicochemical", "details": "dried sample, 20°C, humidity 75% for 7 days, then 20°C, humidity 45% for 7 days, evaluated from change in weight", "procedure": "Approximately one gram of a sample was taken in a weighing bottle, and dried with diphosphorus pentoxide under reduced pressure for 4 hours. The resulting sample was used in the following test. The weight was accurately measured, and the sample was allowed to stand in a constant temperature and constant humidity box having a temperature of 20°C and a humidity of 75% for 7 days. Subsequently, the sample was moved in a constant temperature and constant humidity box having a temperature of 20°C and a humidity of 45%, and allowed to stand for 7 days. The moisturizability was evaluated from the change in weight. As a control sample, glycerin was used. […]"}, "[2]": {"test_system": "rat", "details": "p. o.; cited from earlier work"}}, "note": "Counter-ions that a name gives are not always drawn.", "data": [{"smiles": "OCC(O)CO", "note": "[Glycerin, glycerin, reference compound]", "values": [{"measurement": "Water holding capacity (%)", "setting": "[1]", "result": 19.88, "unit": "%"}]}, {"smiles": "N[C@@H](CCC(=O)NCCS(=O)(=O)O)C(=O)O", "note": "[Glutaurine, glutaurine]", "values": [{"measurement": "Water holding capacity (%)", "setting": "[1]", "result": 17.12, "unit": "%"}, {"measurement": "LD50", "setting": "[2]", "result": "> 1000", "unit": "mg/kg"}]}, {"smiles": "N[C@@H](CCC(=O)NCCS(=O)(=O)O)C(=O)O", "note": "[Glutaurine sodium salt, glutaurine sodium salt]", "values": [{"measurement": "Water holding capacity (%)", "setting": "[1]; sodium salt", "result": 19.45, "unit": "%"}]}]}
